The target of this test is T1, full length SGK1 (Homo sapiens, UniProt O00141).
T1 construct: 125 μM full length SGK1 (Life Technologies Part #PR7358A); purchased Life Technologies PR7358A
T1 sequence (O00141 1-431): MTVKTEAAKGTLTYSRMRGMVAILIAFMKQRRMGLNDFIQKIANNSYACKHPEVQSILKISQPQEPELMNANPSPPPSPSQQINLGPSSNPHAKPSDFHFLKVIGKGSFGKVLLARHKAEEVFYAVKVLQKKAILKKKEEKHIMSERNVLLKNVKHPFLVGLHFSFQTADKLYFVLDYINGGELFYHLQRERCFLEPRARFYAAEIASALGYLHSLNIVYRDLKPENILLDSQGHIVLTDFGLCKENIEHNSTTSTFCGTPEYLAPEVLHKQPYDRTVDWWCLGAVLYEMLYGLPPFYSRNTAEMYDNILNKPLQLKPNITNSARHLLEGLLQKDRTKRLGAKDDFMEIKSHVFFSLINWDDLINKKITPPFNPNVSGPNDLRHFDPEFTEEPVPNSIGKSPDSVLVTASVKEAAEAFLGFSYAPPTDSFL
As to the kind of experiment: SGK1 inhibition Assay A (Caliper LabChip electrophoretic separation of fluorescent peptide substrate and phosphorylated product). Conditions: Assay A; 20 μM ATP, 40 min incubation; read-out: SGK1 IC50. The test is classed as biochemical.

The term IC50 denotes the concentration needed to halve the response being measured. `CC(=O)N1CC=C(c2cc(N3CCC[C@@H](NC(=O)C4CCC(F)(F)C4)C3)c3c(N)ncnn23)C1` (stereo partly drawn) [Example 712, N-((R)-1-(7-(1-acetyl-2,5-dihydro-1H-pyrrol-3-yl)-4-aminopyrrolo[2,1-f][1,2,4]triazin-5-yl)piperidin-3-yl)-3,3-difluorocyclopentane-1-carboxamide]: the IC50 was 1300 nM.
Regarding `CC(=O)N1CC=C(c2cc(N3CCC[C@@H](NC(=O)c4ccnc(OCCN5CCN(C)CC5)c4)C3)c3c(N)ncnn23)C1` [Example 713], the IC50 amounted to 59 nM.
In the case of `CC(=O)N1CC=C(c2cc(N3CCC[C@@H](NC(=O)c4ccc(C#N)s4)C3)c3c(N)ncnn23)C1` [Example 714, (R)-N-(1-(7-(1-acetyl-2,5-dihydro-1H-pyrrol-3-yl)-4-aminopyrrolo[2,1-f][1,2,4]triazin-5-yl)piperidin-3-yl)-5-cyanothiophone-2-carboxamide] it was 7 nM.
As for `COc1cccc(C(=O)N[C@@H]2CCCN(c3cc(C4=CCN(C(C)=O)C4)n4ncnc(N)c34)C2)n1` [Example 715, (R)-N-(1-(7-(1-acetyl-2,5-dihydro-1H-pyrrol-3-yl)-4-aminopyrrolo[2,1-f][1,2,4]triazin-5-yl)piperidin-3-yl)-6-methoxypicolinamide], the IC50 was 22 nM.
For `COc1cc(C(=O)N[C@@H]2CCCN(c3cc(C4=CCN(C(C)=O)C4)n4ncnc(N)c34)C2)ccn1` [Example 716, (R)-N-(1-(7-(1-acetyl-2,5-dihydro-1H-pyrrol-3-yl)-4-aminopyrrolo[2,1-f][1,2,4]triazin-5-yl)piperidin-3-yl)-2-methoxyisonicotinamide], the IC50 was found to be 23 nM.
As for `CC(=O)N1CC=C(c2cc(N3CCC[C@@H](NC(=O)c4ccnc(N(C)C)c4)C3)c3c(N)ncnn23)C1` [Example 717], the IC50 came out at 39 nM.
With `COc1ncccc1C(=O)N[C@@H]1CCCN(c2cc(C3=CCN(C(C)=O)C3)n3ncnc(N)c23)C1` [Example 718, (R)-N-(1-(7-(1-acetyl-2,5-dihydro-1H-pyrrol-3-yl)-4-aminopyrrolo[2,1-f][1,2,4]triazin-5-yl)piperidin-3-yl)-2-methoxynicotinamide], the IC50 came out at 26 nM.
In the case of `CC(=O)N1CC=C(c2cc(N3CCC[C@@H](NC(=O)c4csc(Cl)c4)C3)c3c(N)ncnn23)C1` [Example 719], the IC50 was found to be 5 nM.
With `CC(=O)N1CC=C(c2cc(N3CCC[C@@H](NC(=O)c4csc(C)c4)C3)c3c(N)ncnn23)C1` [Example 720, (R)-N-(1-(7-(1-acetyl-2,5-dihydro-1H-pyrrol-3-yl)-4-aminopyrrolo[2,1-f][1,2,4]triazin-5-yl)piperidin-3-yl)-5-methylthiophene-3-carboxamide], the IC50 was 5 nM.
Regarding `COc1cscc1C(=O)N[C@@H]1CCCN(c2cc(C3=CCN(C(C)=O)C3)n3ncnc(N)c23)C1` [Example 721, (R)-N-(1-(7-(1-acetyl-2,5-dihydro-1H-pyrrol-3-yl)-4-aminopyrrolo[2,1-f][1,2,4]triazin-5-yl)piperidin-3-yl)-4-methoxythiophene-3-carboxamide], the concentration for half-maximal inhibition (IC50) amounted to 10 nM.
On to `CC(=O)N1CC=C(c2cc(N3CCC[C@@H](NC(=O)c4cccnc4OCCN4CCN(C)CC4)C3)c3c(N)ncnn23)C1` [Example 722, (R)-N-(1-(7-(1-acetyl-2,5-dihydro-1H-pyrrol-3-yl)-4-aminopyrrolo[2,1-f][1,2,4]triazin-5-yl)piperidin-3-yl)-2-(2-(4-methylpiperazin-1-yl)ethoxy)nicotinamide], for which the IC50 was determined as 114 nM.
On to `CC(=O)N1CC=C(c2cc(N3CCC[C@@H](NC(=O)c4cccnc4OCCN(C)C)C3)c3c(N)ncnn23)C1` [Example 723, (R)-N-(1-(7-(1-acetyl-2,5-dihydro-1H-pyrrol-3-yl)-4-aminopyrrolo[2,1-f][1,2,4]triazin-5-yl)piperidin-3-yl)-2-(2-(dimethylamino)ethoxy) nicotinamide], for which the IC50 was determined as 267 nM.

(Values after US20260250290A1 (BRISTOL-MYERS SQUIBB COMPANY, priority 2023, published 2026).)
